Laboratory results: patent publication US9611267B2, “Substituted tricyclic compounds as FGFR inhibitors” (Incyte Corporation, priority 2012, dated 2017)

Key:
Format in all cases: biochemical
[1] = biological target: FGFR1 (Homo sapiens (Human), UniProt P11362); experiment: FGFR enzymatic assay (FRET peptide phosphorylation), FGFR1; details: FGFR1 enzyme 0.02 nM, ATP 210 μM
Summary of the method: (§1)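 Recombinant kinase was pre-incubated 5–10 min with serially diluted inhibitor in HEPES buffer (10 mM MgCl2, 5 mM DTT, pH 7.5; buffer described for FGFR3). Peptide phosphorylation ran 1 h at 25 °C and was detected by FRET after ~1 h equilibration. IC50 values come from variable-slope sigmoidal fits.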

[2] = biological target: FGFR3 (Homo sapiens (Human), UniProt P22607); experiment: FGFR enzymatic assay (FRET peptide phosphorylation), FGFR3; details: FGFR3 enzyme (Millipore), ATP 140 μM
Summary of the method: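 FRET assay of peptide phosphorylation by FGFR3 in HEPES pH 7.5 buffer with MgCl2, EGTA, Tween-20 and DTT. Enzyme was pre-incubated 5-10 min with compound, and the reaction ran 1 hr at 25° C. IC50 came from a variable-slope sigmoidal fit.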

[3] = biological target: FGFR2 (Homo sapiens (Human), UniProt P21802); experiment: FGFR enzymatic assay (FRET peptide phosphorylation), FGFR2; details: FGFR2 enzyme 0.01 nM, ATP 100 μM
Summary of the method: as §1

Measured: IC50

Chain of FGFR1 (P11362 22-822): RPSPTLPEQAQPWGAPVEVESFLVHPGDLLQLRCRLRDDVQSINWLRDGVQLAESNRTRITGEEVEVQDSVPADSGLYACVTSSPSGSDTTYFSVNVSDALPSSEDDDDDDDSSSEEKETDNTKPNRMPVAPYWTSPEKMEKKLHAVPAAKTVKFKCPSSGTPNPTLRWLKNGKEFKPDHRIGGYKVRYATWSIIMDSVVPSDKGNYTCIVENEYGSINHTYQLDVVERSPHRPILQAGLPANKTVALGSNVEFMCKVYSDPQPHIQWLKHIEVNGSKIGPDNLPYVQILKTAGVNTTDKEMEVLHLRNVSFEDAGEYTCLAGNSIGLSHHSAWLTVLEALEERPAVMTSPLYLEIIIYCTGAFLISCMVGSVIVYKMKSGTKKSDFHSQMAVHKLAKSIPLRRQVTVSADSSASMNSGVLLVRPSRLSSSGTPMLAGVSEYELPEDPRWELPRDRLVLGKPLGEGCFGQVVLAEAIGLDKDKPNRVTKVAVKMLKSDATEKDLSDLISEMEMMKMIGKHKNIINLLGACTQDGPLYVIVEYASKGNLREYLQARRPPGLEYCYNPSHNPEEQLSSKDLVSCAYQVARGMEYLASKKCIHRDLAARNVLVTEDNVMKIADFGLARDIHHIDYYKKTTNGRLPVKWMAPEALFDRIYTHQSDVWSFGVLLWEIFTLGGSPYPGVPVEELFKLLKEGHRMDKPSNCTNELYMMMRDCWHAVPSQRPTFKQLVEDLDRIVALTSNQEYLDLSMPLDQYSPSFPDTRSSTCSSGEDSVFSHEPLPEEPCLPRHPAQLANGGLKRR
Chain of FGFR3 (P22607 23-806): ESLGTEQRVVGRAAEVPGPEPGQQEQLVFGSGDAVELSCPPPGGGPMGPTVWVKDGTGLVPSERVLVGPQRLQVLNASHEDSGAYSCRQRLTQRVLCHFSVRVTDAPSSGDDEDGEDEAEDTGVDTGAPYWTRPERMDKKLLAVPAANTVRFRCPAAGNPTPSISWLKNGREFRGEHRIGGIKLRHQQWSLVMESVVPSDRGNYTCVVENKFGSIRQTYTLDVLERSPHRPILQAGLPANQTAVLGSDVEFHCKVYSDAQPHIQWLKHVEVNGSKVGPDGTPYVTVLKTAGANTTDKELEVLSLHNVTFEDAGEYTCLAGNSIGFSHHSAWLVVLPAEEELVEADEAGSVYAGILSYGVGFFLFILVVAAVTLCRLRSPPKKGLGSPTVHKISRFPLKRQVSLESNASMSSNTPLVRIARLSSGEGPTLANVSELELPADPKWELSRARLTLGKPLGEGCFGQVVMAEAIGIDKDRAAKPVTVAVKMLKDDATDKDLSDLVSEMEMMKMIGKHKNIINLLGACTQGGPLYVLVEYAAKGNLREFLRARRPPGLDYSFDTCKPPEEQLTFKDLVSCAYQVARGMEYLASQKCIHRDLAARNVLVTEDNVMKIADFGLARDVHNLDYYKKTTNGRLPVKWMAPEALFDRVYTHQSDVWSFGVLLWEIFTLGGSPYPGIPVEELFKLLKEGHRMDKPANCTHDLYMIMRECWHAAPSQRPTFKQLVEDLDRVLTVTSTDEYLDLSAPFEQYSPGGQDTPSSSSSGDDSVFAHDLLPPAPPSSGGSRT
Chain of FGFR2 (P21802 22-821): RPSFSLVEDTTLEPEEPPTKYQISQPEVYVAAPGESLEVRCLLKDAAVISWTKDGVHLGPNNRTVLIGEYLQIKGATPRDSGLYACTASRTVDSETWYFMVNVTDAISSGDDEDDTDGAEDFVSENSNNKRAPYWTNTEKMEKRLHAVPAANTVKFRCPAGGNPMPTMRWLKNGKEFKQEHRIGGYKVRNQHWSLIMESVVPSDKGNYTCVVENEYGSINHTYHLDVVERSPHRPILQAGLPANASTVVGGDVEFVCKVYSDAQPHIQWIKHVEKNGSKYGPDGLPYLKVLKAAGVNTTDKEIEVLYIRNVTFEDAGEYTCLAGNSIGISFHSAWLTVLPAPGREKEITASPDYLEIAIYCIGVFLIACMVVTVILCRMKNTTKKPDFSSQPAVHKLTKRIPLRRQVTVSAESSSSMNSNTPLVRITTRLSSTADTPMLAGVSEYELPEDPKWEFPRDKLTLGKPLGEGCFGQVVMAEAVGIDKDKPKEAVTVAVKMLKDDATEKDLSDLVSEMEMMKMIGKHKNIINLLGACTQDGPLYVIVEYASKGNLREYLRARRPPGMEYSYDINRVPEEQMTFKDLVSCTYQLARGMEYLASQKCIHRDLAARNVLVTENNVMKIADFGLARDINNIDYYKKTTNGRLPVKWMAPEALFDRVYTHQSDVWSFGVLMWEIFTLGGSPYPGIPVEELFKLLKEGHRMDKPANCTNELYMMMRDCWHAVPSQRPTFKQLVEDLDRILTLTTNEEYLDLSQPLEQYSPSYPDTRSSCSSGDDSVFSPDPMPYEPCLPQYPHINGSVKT

COc1cc(OC)c(F)c(N2Cc3cnc4[nH]ncc4c3N([C@H]3CCCOC3)C2=O)c1F [Example 88, 3-(2,6-difluoro-3,5-dimethoxyphenyl)-1-[(3S)-tetrahydro-2H-pyran-3-yl]-1,3,4,7-tetrahydro-2H-pyrazolo[4′,3′:5,6]pyrido[4,3-d]pyrimidin-2-one]
< 100 nM: all assays above

COc1cc(OC)c(F)c(N2Cc3cnc4[nH]ncc4c3N(Cc3cccc(F)n3)C2=O)c1F [Example 216, 3-(2,6-difluoro-3,5-dimethoxyphenyl)-1-[(6-fluoropyridin-2-yl)methyl]-1,3,4,7-tetrahydro-2H-pyrazolo[4′,3′:5,6]pyrido[4,3-d]pyrimidin-2-one]
< 100 nM: all assays above

COc1cc(OC)c(F)c(N2Cc3cnc4[nH]nc(CCO)c4c3N(C)C2=O)c1F [Example 56, 3-(2,6-Difluoro-3,5-dimethoxyphenyl)-9-(2-hydroxyethyl)-1-methyl-1,3,4,7-tetrahydro-2H-pyrazolo[4′,3′:5,6]pyrido[4,3-d]pyrimidin-2-one]
< 100 nM: all assays above

COc1cc(OC)c(F)c(N2Cc3cnc4[nH]c(CCN5CCCC5)cc4c3N(C)C2=O)c1F [Example 116, 3-(2,6-difluoro-3,5-dimethoxyphenyl)-1-methyl-8-(2-pyrrolidin-1-ylethyl)-1,3,4,7-tetrahydro-2H-pyrrolo[3′,2′:5,6]pyrido[4,3-d]pyrimidin-2-one]
< 100 nM: all assays above

COc1cc(OC)cc(N2Cc3cnc4[nH]ccc4c3N(CC3CC3)C2=O)c1 [Example 5, 1-(Cyclopropylmethyl)-3-(3,5-dimethoxyphenyl)-1,3,4,7-tetrahydro-2H-pyrrolo[3′,2′:5,6]pyrido[4,3-d]pyrimidin-2-one]
< 100 nM: all assays above

COc1cc(OC)c(F)c(N2Cc3cnc4[nH]ncc4c3N(Cc3cccc(C)n3)C2=O)c1F [Example 217, 3-(2,6-difluoro-3,5-dimethoxyphenyl)-1-[(6-methylpyridin-2-yl)methyl]-1,3,4,7-tetrahydro-2H-pyrazolo[4′,3′:5,6]pyrido[4,3-d]pyrimidin-2-one]
< 100 nM: all assays above

COc1cc(OC)c(F)c(N2Cc3cnc4[nH]c(CN5CC[C@@H](N(C)C)C5)cc4c3C(C)(C)C2=O)c1F [Example 157, 7-(2,6-difluoro-3,5-dimethoxyphenyl)-2-{[(3R)-3-(dimethylamino)pyrrolidin-1-yl]methyl}-9,9-dimethyl-3,6,7,9-tetrahydro-8H-pyrrolo[2,3-c]-2,7-naphthyridin-8-one]
< 100 nM: all assays above

COc1cc(OC)c(F)c(N2Cc3cnc4[nH]ncc4c3N(Cc3cscn3)C2=O)c1F [Example 163, 3-(2,6-Difluoro-3,5-dimethoxyphenyl)-1-(1,3-thiazol-4-ylmethyl)-1,3,4,7-tetrahydro-2H-pyrazolo[4′,3′:5,6]pyrido[4,3-d]pyrimidin-2-one]
< 100 nM: all assays above

COc1cc(OC)c(F)c(N2Cc3cnc4[nH]c(CCN5CCN(C)CC5)cc4c3N(c3ccccc3F)C2=O)c1F [Example 197, 3-(2,6-difluoro-3,5-dimethoxyphenyl)-1-(2-fluorophenyl)-8-[2-(4-methylpiperazin-1-yl)ethyl]-1,3,4,7-tetrahydro-2H-pyrrolo[3′,2′:5,6]pyrido[4,3-d]pyrimidin-2-one]
< 100 nM: all assays above

COc1cc(OC)c(F)c(N2Cc3cnc4[nH]ncc4c3N(C)C2=O)c1F [Example 51, 3-(2,6-Difluoro-3,5-dimethoxyphenyl)-1-methyl-1,3,4,7-tetrahydro-2H-pyrazolo[4′,3′:5,6]pyrido[4,3-d]pyrimidin-2-one]
< 100 nM: all assays above

COc1cc(OC)c(F)c(N2Cc3cnc4[nH]c(CN5CCOCC5)cc4c3N(c3cccc(F)c3F)C2=O)c1F [Example 211, 3-(2,6-difluoro-3,5-dimethoxyphenyl)-1-(2,3-difluorophenyl)-8-(morpholin-4-ylmethyl)-1,3,4,7-tetrahydro-2H-pyrrolo[3′,2′:5,6]pyrido[4,3-d]pyrimidin-2-one]
< 100 nM: all assays above

COc1cc(OC)c(F)c(N2Cc3cnc4[nH]c(Cn5cccn5)cc4c3N(C)C2=O)c1F [Example 138, 3-(2,6-difluoro-3,5-dimethoxyphenyl)-1-methyl-8-(1H-pyrazol-1-ylmethyl)-1,3,4,7-tetrahydro-2H-pyrrolo[3′,2′:5,6]pyrido[4,3-d]pyrimidin-2-one]
< 100 nM: all assays above

COc1cc(OC)c(F)c(N2Cc3cnc4[nH]nc(C)c4c3N(C)C2=O)c1F [Example 52, 3-(2,6-Difluoro-3,5-dimethoxyphenyl)-1,9-dimethyl-1,3,4,7-tetrahydro-2H-pyrazolo[4′,3′:5,6]pyrido[4,3-d]pyrimidin-2-one]
< 100 nM: all assays above

COc1cc(OC)c(F)c(N2Cc3cnc4[nH]cc(-c5cnn(C)c5)c4c3N(C)C2=O)c1F [Example 43, 3-(2,6-Difluoro-3,5-dimethoxyphenyl)-1-methyl-9-(1-methyl-1H-pyrazol-4-yl)-1,3,4,7-tetrahydro-2H-pyrrolo[3′,2′:5,6]pyrido[4,3-d]pyrimidin-2-one]
< 100 nM: all assays above

COc1cc(OC)c(F)c(N2Cc3cnc4[nH]c(CN5CCC(F)(F)CC5)cc4c3N(C)C2=O)c1F [Example 112, 3-(2,6-difluoro-3,5-dimethoxyphenyl)-8-[(4,4-difluoropiperidin-1-yl)methyl]-1-methyl-1,3,4,7-tetrahydro-2H-pyrrolo[3′,2′:5,6]pyrido[4,3-d]pyrimidin-2-one]
< 100 nM: all assays above

COc1cc(OC)c(F)c(N2Cc3cnc4[nH]c(CCN5CCN(C)CC5)cc4c3N(c3cccc(F)c3F)C2=O)c1F [Example 223, 3-(2,6-difluoro-3,5-dimethoxyphenyl)-1-(2,3-difluorophenyl)-8-[2-(4-methylpiperazin-1-yl)ethyl]-1,3,4,7-tetrahydro-2H-pyrrolo[3′,2′:5,6]pyrido[4,3-d]pyrimidin-2-one]
< 100 nM: all assays above

COc1cc(OC)c(F)c(N2Cc3cnc4[nH]ncc4c3N(C[C@@H]3CCOC3)C2=O)c1F [Example 179, 3-(2,6-difluoro-3,5-dimethoxyphenyl)-1-[(3S)-tetrahydrofuran-3-ylmethyl]-1,3,4,7-tetrahydro-2H-pyrazolo[4′,3′:5,6]pyrido[4,3-d]pyrimidin-2-one]
< 100 nM: all assays above

COc1cc(OC)c(F)c(N2Cc3cnc4[nH]ncc4c3N(c3ncccc3F)C2=O)c1F [Example 218, 3-(2,6-Difluoro-3,5-dimethoxyphenyl)-1-(3-fluoropyridin-2-yl)-1,3,4,7-tetrahydro-2H-pyrazolo[4′,3′:5,6]pyrido[4,3-d]pyrimidin-2-one]
< 100 nM: all assays above
